What was measured:
TaFdcV = experiment: Cycloadduct formation with TaFdcV followed by UV-Vis spectroscopy; assay type: binding, Trichoderma atroviride; settings: for adduct formation / binding, reversibility after desalting: UV-Vis spectrum before and after a desalting step
[1] = molecular target: E. coli deoxyribose-phosphate aldolase (Escherichia coli, UniProt P0A6L0); settings: Racker et al. 1951; Jennewein et al. 2006; cited from earlier work
TaFdc = experiment: Adduct formation with TaFdc wild-type followed by UV-Vis spectroscopy; settings: UV-Vis spectrum before and after a desalting step

Sequence of E. coli deoxyribose-phosphate aldolase (P0A6L0 whole entry): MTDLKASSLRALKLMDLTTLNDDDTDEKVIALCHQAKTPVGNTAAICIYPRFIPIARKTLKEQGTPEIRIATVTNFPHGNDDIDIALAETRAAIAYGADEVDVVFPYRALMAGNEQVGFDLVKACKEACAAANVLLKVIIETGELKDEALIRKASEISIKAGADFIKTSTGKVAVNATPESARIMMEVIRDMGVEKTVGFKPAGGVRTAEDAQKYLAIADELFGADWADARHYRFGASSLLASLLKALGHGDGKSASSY

CC#CC(=O)O [2-butynoic acid]
adduct formation / binding, reversibility after desalting (TaFdcV): a covalent inhibitory adduct is formed

OC(O)C(Cl)(Cl)Cl [chloral hydrate]
inhibition of E. coli deoxyribose-phosphate aldolase [1]: inhibit

O=CCCl [chloroacetaldehyde]
inhibition of E. coli deoxyribose-phosphate aldolase [1]: efficiently inhibit

C/C=C/C(=O)O [crotonic acid]
inhibition of the enzyme ferulic acid decarboxylase (FDC) (TaFdcV; FDC variant evolved to decarboxylate 3-methylcrotonic acid, FIG.2): irreversible inhibitor
adduct formation / binding, reversibility after desalting (TaFdcV): a covalent inhibitory adduct is formed

CCC/C=C/C(=O)O [hexenoic acid, trans-2-hexenoic acid]
adduct formation / binding, reversibility after desalting (TaFdcV): irreversibly binds
adduct formation / binding, reversibility after desalting (TaFdc): irreversibly binds

NO [hydroxylamine]
inhibition of E. coli deoxyribose-phosphate aldolase [1]: inhibit

CCCCCCCCO [octanol]
inhibition of E. coli deoxyribose-phosphate aldolase [1]: inhibit

CCC=O [propionaldehyde]
inhibition of E. coli deoxyribose-phosphate aldolase [1]: inhibit

pentenoic acid
adduct formation / binding, reversibility after desalting (TaFdcV): irreversibly binds
adduct formation / binding, reversibility after desalting (TaFdc): irreversibly binds

Reference: patent EP4144838A1, “ORGANISMS PRODUCING LESS CROTONIC ACID” (Global Bioenergies, priority 2021, dated 2023)
